Results on one molecule are retold here after ChEMBL document CHEMBL5053535, “Design, synthesis and biological evaluation of novel aminopyrazole- and 7-azaindole-based Nek1 inhibitors and their effects on zebrafish kidney development” (Bioorg Med Chem Lett, 2021).

Values after ≈ are worked out from the molar mass of the structure shown.

Data set [1] is filed under the species Danio rerio. Put plainly: Toxicity in wild type zebra fish model of polycystic kidney disease assessed as increase in fluorescence intensity at 0.5 uM incubated for 48 hrs in presence of N-phenyl thiourea further treated with PT-yellow for 20 mins followed by dye washout and incubated in solution containing compound for 96 hrs by fluorescence imaging analysis. In kind it is organism-based. Conditions: zebrafish, in vivo.

The nature of data set [2]: Solubility of the compound in E3 medium with 0.2% DMSO by DAD-HPLC based shake flask method. In kind it is physicochemical.
In data set [3] the target is T1, Serine/threonine-protein kinase Chk1 (Homo sapiens) (UniProt O14757).
T1 sequence (whole entry): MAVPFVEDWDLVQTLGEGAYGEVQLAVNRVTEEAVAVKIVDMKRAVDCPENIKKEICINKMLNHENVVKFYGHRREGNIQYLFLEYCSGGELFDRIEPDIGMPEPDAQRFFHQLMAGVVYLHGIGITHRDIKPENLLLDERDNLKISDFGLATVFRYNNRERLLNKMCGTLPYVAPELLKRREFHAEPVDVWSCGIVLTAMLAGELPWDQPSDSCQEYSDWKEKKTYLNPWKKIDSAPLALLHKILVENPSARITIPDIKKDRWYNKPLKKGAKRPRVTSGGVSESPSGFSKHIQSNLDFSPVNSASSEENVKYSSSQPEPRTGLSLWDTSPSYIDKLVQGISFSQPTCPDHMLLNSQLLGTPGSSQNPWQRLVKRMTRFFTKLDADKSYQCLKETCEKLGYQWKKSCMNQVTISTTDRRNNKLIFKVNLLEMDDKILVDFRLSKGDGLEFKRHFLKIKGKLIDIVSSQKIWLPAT
The data set can be described thus: Inhibition of human recombinant full length N-terminal His tagged CHK1 expressed in baculovirus infected Sf21 insect cells using CHKtide as substrate assessed as residual activity at 1 uM pretreated for 20 mins followed by [33P]-ATP addition measured after 120 mins by radiometric hotspot kinase assay relative to control. Conditions: time 140.0 min.

Data set [4] in a line: Permeability across basolateral to apical side in human Caco-2 cells at pH 7.4 at 1 uM. The data set is classed as ADME, cell-based. Conditions: Caco-2, pH 7.4, read-out: permeability. A general note: Caco-2 cells form a polarised layer with tight junctions and transporters.
The nature of data set [5]: Solubility of the compound in DMEM with 1% DMSO by DAD-HPLC based shake flask method. The data set is classed as physicochemical.
Data set [6] has as its target T2, Serine/threonine-protein kinase Nek1 (Homo sapiens) (UniProt Q96PY6).
T2 sequence (whole entry): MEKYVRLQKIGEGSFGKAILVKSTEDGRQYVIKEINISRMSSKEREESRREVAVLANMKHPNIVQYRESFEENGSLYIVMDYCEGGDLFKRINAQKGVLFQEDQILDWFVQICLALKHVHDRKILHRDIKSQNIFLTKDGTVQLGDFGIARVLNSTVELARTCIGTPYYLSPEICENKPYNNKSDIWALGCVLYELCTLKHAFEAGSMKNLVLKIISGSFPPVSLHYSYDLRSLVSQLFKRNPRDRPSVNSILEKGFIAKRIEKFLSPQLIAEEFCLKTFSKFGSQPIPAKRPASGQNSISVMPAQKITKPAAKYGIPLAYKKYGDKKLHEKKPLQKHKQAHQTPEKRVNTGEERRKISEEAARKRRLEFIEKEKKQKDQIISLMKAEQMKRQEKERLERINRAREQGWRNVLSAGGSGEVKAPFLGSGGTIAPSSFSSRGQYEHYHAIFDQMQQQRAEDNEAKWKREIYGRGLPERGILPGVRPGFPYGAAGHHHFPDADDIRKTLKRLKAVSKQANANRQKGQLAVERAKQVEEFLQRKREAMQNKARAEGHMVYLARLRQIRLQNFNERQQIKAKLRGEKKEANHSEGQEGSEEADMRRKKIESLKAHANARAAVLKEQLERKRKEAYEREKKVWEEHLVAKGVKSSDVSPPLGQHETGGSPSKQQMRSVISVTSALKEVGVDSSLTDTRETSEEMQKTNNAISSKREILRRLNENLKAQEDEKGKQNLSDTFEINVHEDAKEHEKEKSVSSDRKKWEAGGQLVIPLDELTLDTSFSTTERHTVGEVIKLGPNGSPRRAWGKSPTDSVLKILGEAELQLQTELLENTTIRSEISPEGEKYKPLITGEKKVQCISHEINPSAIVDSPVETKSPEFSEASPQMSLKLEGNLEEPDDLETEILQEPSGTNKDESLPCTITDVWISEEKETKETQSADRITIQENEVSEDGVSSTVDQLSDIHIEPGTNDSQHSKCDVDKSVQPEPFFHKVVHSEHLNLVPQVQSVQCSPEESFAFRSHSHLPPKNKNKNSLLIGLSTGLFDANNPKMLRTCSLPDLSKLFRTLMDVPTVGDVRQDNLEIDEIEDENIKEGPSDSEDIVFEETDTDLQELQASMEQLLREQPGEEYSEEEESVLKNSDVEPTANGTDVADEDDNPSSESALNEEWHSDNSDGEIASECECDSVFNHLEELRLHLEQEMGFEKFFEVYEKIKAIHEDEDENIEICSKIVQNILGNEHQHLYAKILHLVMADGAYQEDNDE
Put plainly: Inhibition of human NEK1 using myelin basic protein as substrate assessed as residual activity at 1 uM in presence of [gamma-33P]-ATP by radiometric hotspot kinase assay relative to control.

The nature of data set [7]: Permeability across apical to basolateral side in human Caco-2 cells at pH 6.5 at 1 uM. The data set is classed as ADME, cell-based. Conditions: Caco-2, pH 6.5, read-out: permeability.
The species named for data set [8] is Danio rerio. Put plainly: Toxicity in wild type zebra fish model of polycystic kidney disease assessed as minor tubular volume expansion at 0.5 uM incubated for 48 hrs in presence of N-phenyl thiourea further treated with PT-yellow for 20 mins followed by dye washout and incubated in solution containing compound for 96 hrs by fluorescence imaging analysis. The data set is classed as organism-based. Conditions: zebrafish, in vivo.

For data set [9], the species on record is Danio rerio. Put plainly: Toxicity in zebra fish embryos assessed as phenotype changes at 0.01 to 2.5 uM measured after 96 hrs. In kind it is organism-based. Conditions: zebrafish, in vivo, dose 0.01-2.5 µM.
The target in data set [10] is T3, Serine/threonine-protein kinase Nek1 (Homo sapiens, UniProt Q96PY6).
T3 sequence (Q96PY6 whole entry): T2 sequence (whole entry)
Put plainly: Inhibition of human NEK1 using myelin basic protein as substrate assessed as residual activity in presence of [gamma-33P]-ATP by radiometric hotspot kinase assay relative to control.

A short description of data set [11]: Stability of the compound in DMEM measured after 48 hrs by DAD-HPLC method. In kind it is physicochemical. Conditions: read-out: Stability.
The nature of data set [12]: Permeability across apical to basolateral side in human Caco-2 cells at pH 6.5 assessed as compound recovery at 1 uM. In kind it is ADME, cell-based. Conditions: Caco-2, pH 6.5, read-out: Drug recovery.
A short description of data set [13]: Toxicity in zebra fish embryos assessed as lethality at 1.5 uM measured after 96 hrs relative to control. In kind it is organism-based, Danio rerio. Conditions: zebrafish, in vivo, read-out: Activity.
Data set [14] is described as follows: Toxicity in zebra fish embryos assessed as lethality at 2.5 uM measured after 24 hrs relative to control. The data set is classed as organism-based, Danio rerio. As to conditions: zebrafish, in vivo, read-out: Activity.
Data set [15] in a line: Permeability across basolateral to apical side in human Caco-2 cells at pH 7.4 assessed as compound recovery at 1 uM. In kind it is ADME, cell-based. As to conditions: Caco-2, pH 7.4, read-out: Drug recovery.

As usually defined, the solubility is the dissolved amount per volume that the medium holds. A higher solubility goes with much dissolved substance. As usually defined, the IC50 is the midpoint of a concentration-inhibition curve. For `COC(=O)c1cccc(-c2cnc3[nH]cc(-c4cccnc4)c3c2)c1`, the Activity result in the data set listed under Danio rerio [1] is “Toxic”; in data set [3], 48.5%; in data set [6], -0.6%; in the data set filed under Danio rerio [8], “Toxic”; in the data set listed under Danio rerio [9], “Non-Toxic”. For the same molecule, the solubility in [2] stood at 1.9 µM (≈ 0.626 µg/mL); in data set [5], 4.3 µM (≈ 1.42 µg/mL). Besides, in data set [4], the Papp B→A at 1 µM was 0.04 ×10⁻⁶ cm/s. The Papp A→B at 1 µM in [7] was found to be 0.13 ×10⁻⁶ cm/s. Further, the half-maximal inhibitory concentration (IC50) in data set [10] worked out at 11.5 nM. For the same molecule, the remaining at 48 h in data set [11] came to 103%. Besides, the recovery at 1 µM in data set [12] amounted to 0.4%; in data set [15], 29.6%. Further, in [13], the mortality at 96 h, 1.5 µM turned out to be 100%. The mortality at 24 h, 2.5 µM in data set [14] came to 100%.
